Data on four compounds can be found in patent publication US9624235B2, “Compounds and methods for inhibition of AP endonuclease-1/redox factor-1 (HAPE1) activity” (University of Pittsburgh—Of the Commonwealth System of …, priority 2012, dated 2017).

One assay concerns VERA kidney cell line. The conditions noted are these: read-out: IC50 for the toxicity; cited from earlier work.
Assay [1] addresses APE-1 activity in T98G cell nuclear lysates (Homo sapiens (Human), UniProt P27695). Briefly: Molecular beacon assay in T98G cell nuclear extracts. Type of assay: biochemical. The procedure:
Isolation and Assay of APE-1 Protein from Nuclear Extracts of Glioma Cells. Human glioblastoma cells (T98G) were maintained in growth medium, i.e., Eagle's Minimum Essential Medium (EMEM) with 10% fetal bovine serum (FBS), […] gentamycin, 1×MEM non-essential amino acids and 1 mM sodium pyruvate. Cells were harvested by Trypsin-EDTA treatment, washed with 1×PBS and nuclear proteins isolated using the CelLytic NuCLEAR Extraction kit (Sigma-Aldrich) as per manufacturer's instructions. Isolated nuclear proteins were estimated colorimetrically (BCA protein assay) and stored at −80° C. (long term) or at −20° C. during regular use. To assay APE-1 activity in T98G cells, nuclear extracts were serially diluted in 10 mM HEPES, 50 mM KCl, 1 mM DTT, 20% (v/v) glycerol and the activities measured via the molecular beacon assay (as described above). […] EC2 nM of nuclear extracts was incubated with 2 to 500 nM hairpin DNA substrate and the V0 measured for each value of [S]. Finally, the apparent KM* was deduced using the software algorithm in Prism (as described previously), and the KM* was used to determine the apparent Ki*. Inhibition of EC2 nM APE-1 activity by the inhibitors was assayed via the molecular beacon assay (described above).
Inhibition of APE-1 Activity in Nuclear Lysates. The ability of 1-5 and 8 to block APE-1 endonuclease activity in a complex mixture of proteins from T98G cell nuclear lysates was tested using the molecular beacon assay. The APE-1 activity in the lysates was standardized to give ˜90% turnover of 25 nM substrate in 10 min.

Assay [2] deals with T98G cells. The experiment in a line: Long term (10-day) CyQUANT cytotoxicity assay. Type of assay: cell-based, human. How it is done:
(§1) Cytotoxic Effects of APE-1 Inhibitors on Cultured Human Glioblastoma (T98G) Cells. Human glioblastoma cells (T98G) were maintained in growth medium as described above. […] The cells were allowed to attach and grow for 24 h, and then treated with serial dilutions of the drug for 72 h. After treatment, viable cells were measured by an MTS assay using the CellTiter 96 AQueous kit (Promega) as per manufacturer's instructions. […] The cells were allowed to attach and grow for 24 h and treated with serial dilutions of the drug for 240 h. After treatment, viable cells were measured using the CyQUANT cell proliferation assay kit (Invitrogen) as per manufacturer's instructions.
(§2) Toxicity. It was assumed that inhibition of APE-1 activity would be lead to toxicity since genetic deletion of the protein is lethal to cells. […] The toxicities were also determined in combination with the DNA minor groove methylating agent, MeLex. MeLex efficiently and selectively generates N3-methyladenine, which is converted into an abasic site by a BER glycosylase and/or hydrolytic depurination. The T98G cell line is relatively resistant to DNA damaging anticancer agents due to expression of multiple drug resistance proteins and O^6-alkylguanine-DNA alkyltransferase. […] A goal of the development of APE-1 inhibitors is to determine if they can be used to enhance the activity of DNA alkylating agents.

The target in assay [3] is T1, APE-1 (Homo sapiens (Human), UniProt P27695). Briefly: Molecular beacon assay for APE-1 endonuclease inhibition. Type of assay: biochemical. The conditions noted are these: molecular beacon assay, endonuclease activity; read-out: Ki APE-1 endonuclease inhibition. The source says:
Screening Assays for APE1 Inhibition—The initial screen was designed to look at the effect of potential inhibitors on APE1 repair kinetics. The approach can be used as a high throughput screen by choosing a specific timepoint to monitor. The screen utilizes a molecular beacon with a tetrahydrofuran (THF) abasic site within the stem region of a DNA hairpin that has a fluorophore on the 5′-terminus and a quencher on the 3′-terminus (FIG. 2a). […] An example of the molecular beacon screen and the excision assay are shown in FIGS. 2b,c and 2d, respectively.
Molecular Beacon Assay for Screening of APE-1 Inhibitors. A fluorescence-based molecular beacon assay to measure APE-1 protein activity and inhibition was performed as described previously with some modifications. Tang et al. Neuro Oncol. 13, 471-486 (2011) APE-1 (2 nM) in 10 mM HEPES (pH 7.8) 0.5 mM MgCl, 100 mM NaCl, 100 mM KCl, 0.0005% (w/v) BSA, was incubated with 20 nM 5′-(F)-CGACTXTTGAATTGACACGCCATGTCGATCAATTCAATAGTCG-(D)-3′ [X=tetrahydrofuran (THF) abasic site modification; F, 6-carboxyfluorescein (6-FAM); and D, DABCYL] that forms a hairpin with a 15 base pair stem and a 13 base loop. The THF modification is a known substrate for APE-1 excision. APE-1 mediated cleavage of the phosphodiester backbone at the THF-abasic site led to release of the 5′ 6-FAM (fluorophore) containing pentanucleotide, disrupting the Förster Resonance Energy Transfer (FRET) mediated quenching of the 6-FAM by DABCYL in the native hairpin oligomer. Since the signal was generated by continuous liberation of the fluorophore-labeled excision fragment, progress of this reaction could be monitored in real-time using a Cary Eclipse fluorescence spectrometer (Varian, Palo Alto, Calif.) or a Synergy H1 multi-well plate reader (BioTek, Winooski, Vt.). Reactions were optimized to yield ˜90% substrate turnover in 10 min, and fluorescence intensities measured every 12 s at 495 nm excitation and 520 nm emission. Data from the first 1-3 min of the assays (linear phase) were used to determine rate of substrate turnover (V0). The Michaelis constant (KM) was deduced experimentally, by incubating 2 nM APE-1 protein with 2-500 nM hairpin DNA substrate and measuring V0 —the experimentally observed V0 were analyzed as a function of substrate concentration [S] via non-linear regression using Prism (v.4; GraphPad Software, Inc., La Jolla, Calif.) and the KM was calculated as per the algorithm in the software package. To assay inhibition, 2 nM APE-1 protein was pre-incubated with 0.05-10.00 μM of the candidate inhibitors at 25° C. for 60 min, before initiating the excision assay by addition of hairpin DNA substrate. V0 was calculated at various concentrations of inhibitors and represented as inverse function of increasing inhibitor concentration [I]. […] All assays were carried out in three independent sets to obtain mean data and standard error of mean.
(§3) Screening for APE-1 Inhibitors. […] In this assay, the DNA hairpin substrate has a 6-FAM fluorophore on the 5′-terminus, a DABACYL fluorescence quencher on the 3′-terminus and a THF abasic site located 6 base pairs from the 5′-terminus in the stem region (FIG. 6). APE-1 activity is monitored as an increase in fluorescence due to the release of the 5′-(6-FAM)-GCACT fragment as a function of time. […] In this assay, substrate turnover was calculated from relative intensities of cleaved vs. intact oligomers and correlated with inhibitor concentration.

For assay [4], the target named is T1, APE-1. Briefly: Gel-based excision assay for APE-1 inhibitors. Type of assay: biochemical. The conditions noted are these: APE-1 cleaved fragment vs. full length DNA substrate. The procedure:
as §3

The test system of assay [5] is HEYC-2 ovarian tumor cells. The conditions noted are these: read-out: IC50 for cell growth; cited from earlier work.
Assay [6] relates to T98G cells. Briefly: Short term (72 h) MTS cytotoxicity assay. Type of assay: cell-based, human. The conditions noted are these: 72 h MTS assay. The procedure: as §1, §2
Assay [7] concerns aldehyde reactive sites in genomic DNA from T98G cells. Type of assay: cell-based, human. The conditions noted are these: for effect on ARS: 0.25 μM compound alone; for level of ARS in combination with MeLex: 80 μM MeLex + 0.25 μM compound, after 6 h.
Description: Quantification of Abasic Sites. T98G cells maintained in growth medium, were harvested by Trypsin-EDTA treatment, resuspended in fresh growth medium at a density of 2.5×10^5 cells mL^−1, and 2 mL (5×10^5 cells) of this suspension was seeded into the wells of a sterile 6-well tissue culture plate. Cells were allowed to grow for 24 h, treated with the various compounds for different time points and/or at different concentrations. At the end of each treatment, adherent cells were harvested by trypsin-EDTA treatment and pooled with live and dead cells in culture supernatant. Pooled cells in suspension were pelleted by centrifugation, washed with 1×PBS and genomic DNA was isolated using the DNAzol reagent (Invitrogen). DNA in solution was quantified by UV absorbance (λ260 nm) using a Synergy H1 multiwell plate reader (BioTek, Winooski, Vt.). Abasic sites in purified DNA were then reacted with the biotin-conjugated aldehyde reactive probe (ARP), immobilized onto 96-well ELISA plates, and detected using horseradish peroxidase (HRP)-conjugated streptavidin using a colorimetric substrate as per manufacturer's instructions (Dojindo Molecular Technologies, Rockville, Md.).
The biotin tagged ARS are quantified using an avidin-biotin assay, followed by colorimetric detection with horseradish peroxidase conjugated to avidin.
In assay [8] the test system is T98G cells. The experiment in a line: Potentiation of MeLex cytotoxicity, short term (72 h) MTS assay. Type of assay: cell-based, human. The conditions noted are these: 72 h MTS assay. How it is done:
(§4) Cytotoxic Potentiation of Various DNA Damaging Agents. T98G cells maintained in growth medium were resuspended in fresh growth medium and seeded into 96-well plates at 2000 cells/well (short term cytotoxicity) or 100 cells/well (long term cytotoxicity) as described in the previous section. After 24 h, the cells were treated with serial dilutions of various DNA damaging drugs in absence or presence of APE-1 inhibitors. At the end of the treatment period, cell survival was assayed using CellTiter 96 AQueous or CyQUANT kits for the short- and long-term studies respectively.
as §2

For assay [9], the system named is SKOV-3X ovarian tumor cells. The conditions noted are these: read-out: IC50 for cell growth; cited from earlier work.
The target in assay [10] is T1, APE-1. The experiment in a line: Displacement of 4 from APE-1 by E3330 (fluorescence). The conditions noted are these: 6 μM 4, 1 μM APE-1. Type of assay: binding. The procedure:
(§5) Fluorescence and UV Spectrometry Binding Studies. The fluorescence spectra were measured at room temperature on a Cary Eclipse fluorescence spectrometer (Varian, Palo Alto, Calif.). The fluorescence properties of 1 and 4 were measured in 10 mM HEPES, 0.5 mM MgCl2, 100 mM KCl, 100 mM NaCl, 2% glycerol, in absence or presence of wild type (unmodified) hairpin DNA (5′-[…]-3′) or THF-modified hairpin DNA (5′-CGAXTTCGCAGGACCGAATTCG-3′) or APE-1 protein. A solution of 0.5 μM of either DNA sequence was titrated against 1-10 μM ethidium bromide (EtBr) to determine saturation of EtBr by fluorescence (530 nm excitation with 610 nm emission) and the subsequent displacement of EtBr (4 μM) by 1-20 μM 1 or 4 was also assayed. The APE protein-inhibitor binding fluorescence was assayed by titrating 0.1-20 μM of 4 against 1 μM of APE-1 protein.
Interaction of Inhibitors with APE-1 Protein. To establish whether there is a direct interaction between an inhibitor and APE-1, the fluorescence spectra of 4 was determined in the absence and presence of increasing amounts of the protein.

Assay [11] deals with T98G cells. The experiment in a line: Potentiation of MeLex cytotoxicity, long term (10 d) CyQUANT assay. Type of assay: cell-based, human. The conditions noted are these: LD10 concentration. The procedure:
as §4, §2

In another assay the target is double-stranded DNA. The conditions noted are these: cited from earlier work.
The target in a further assay is unmodified hairpin DNA. The experiment in a line: EtBr fluorescence titration with hairpin DNA. Type of assay: binding. How it is done: as §5, with “(5′-[…]-3′)” for “(5′-CGAXTTCGCAGGACCGAATTCG-3′)”
(§6) Interaction of Inhibitors with DNA. A potential mechanism by which compounds can block APE-1 activity involves the interaction with the DNA substrate by intercalation. Such binding to DNA could sterically reduce the accessibility of the protein to the abasic site substrate. […] To further probe the potential role of intercalation, the effect of EtBr on the fluorescence of 1 and 4 were determined. […] The small changes in the fluorescence of 4 with both DNAs indicate little discrimination for the THF lesion.

The next assay deals with THF modified hairpin DNA. The experiment in a line: EtBr fluorescence titration with hairpin DNA. Type of assay: binding. The procedure: as §5, with “(5′-[…]-3′)” for “(5′-CGAXTTCGCAGGACCGAATTCG-3′)”
as §6

Assay [12] relates to T98G cells. Briefly: MTT toxicity assay in T98G glioma cells. The conditions noted are these: FIG. 3(a). Type of assay: cell-based, human. The procedure: FIGS. 3(a)-(b). […] (b) Toxicity of MeLex (efficiently generates 3-mA) in the absence (o) and presence of 50 nM ( ) or 250 nM (∇) inhibitor 4.
Toxicity of APE1 Inhibitors in T98G Glioma Cells—A short term (MTT assay) and long term (clonogenic assay) dose response toxicity for the inhibitors was performed in T98G glioma cells in the absence of a DNA alkylating agent. This cell line was selected because it is quite resistant to many DNA alkylating agents; therefore, it represents a good model to test the potential effect of APE1 inhibition on the toxicity of DNA damaging compounds.

T1 sequence (P27695 whole entry): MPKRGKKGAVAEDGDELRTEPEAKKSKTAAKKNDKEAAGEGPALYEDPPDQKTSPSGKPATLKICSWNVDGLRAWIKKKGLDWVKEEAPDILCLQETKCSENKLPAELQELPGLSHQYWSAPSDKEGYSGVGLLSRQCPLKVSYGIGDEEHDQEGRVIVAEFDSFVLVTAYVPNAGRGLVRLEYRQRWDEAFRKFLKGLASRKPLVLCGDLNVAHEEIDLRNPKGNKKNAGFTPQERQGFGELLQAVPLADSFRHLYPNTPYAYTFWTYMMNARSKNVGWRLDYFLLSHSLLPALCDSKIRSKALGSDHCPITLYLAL
APE-1 activity in T98G cell nuclear lysates, sequence (P27695 whole entry, stated change not applied): as the sequence (P27695 whole entry) above

Take `Cc1cc(N/N=C/c2ccc3c(c2)OCO3)c2cc3c(cc2n1)OCO3` [Compound 3]: the IC50 is 630 nM in the assay on VERA kidney cell line; 540 nM in the assay with T98G cells [2] (Homo sapiens, T98G, assay not stated, read-out: toxicity observed in the glioma T98G line); 2900 nM against APE-1 [4]. In addition, the Ki stood at 280 nM in assay [1] and 190 nM at APE-1 [3].

Turning to `CCCCCCCCC/C(=C\C1=C(C)C(=O)C(OC)=C(OC)C1=O)C(=O)O` [Compound E3330], the IC50 in assay [5] and in assay [9] was ~35 µM throughout. In addition, the values for the LD10 concentration with T98G cells [6] and with T98G cells [2] (long term assay) were 6.9 µM and 14.80 µM, respectively. For the same compound, the “effect on ARS” value in [7] was “returned to control levels by 18 h”. The “level of ARS in combination with MeLex” value in assay [7] is reported as “dropped off”. In addition, the “LD50 of MeLex in the presence of LD10 concentration of inhibitor” value with T98G cells [8] was found to be 128 µM. In addition, at APE-1 [10], the “E3330 concentration for approximately 50% decrease in the fluorescence of 4” value was “approximately 12 μM”. In the assay with T98G cells [11], the “potentiating the toxicity of MeLex” value is recorded as “little or no contribution”.

For `CC[n+]1c(-c2ccccc2)c2cc(N)ccc2c2ccc(N)cc21` [EtBr, ethidium bromide], the figures for the Kd on double-stranded DNA, on unmodified hairpin DNA and at THF modified hairpin DNA were ~1000 nM, 1600 nM and 1800 nM, respectively. Also, in assay [7], the “effect on ARS” value is reported as “no effect”. Besides, the “level of ARS in combination with MeLex” value in assay [7] is on record as “dropped off”. Moreover, the Ki on APE-1 [3] was determined as 1800 nM.

The compound `CCn1c2ccccc2c2cc(/C=N/Nc3cc(C)nc4cc5c(cc34)OCO5)ccc21` [Inhibitor-1] gave an LD50 in the assay on T98G cells [12] of 960 nM.
